Measurements as given in patent US20250179033A1 (priority 2021, published 2025).
Like-named read-outs stand apart in the source and are kept apart here.

Columns and labels:
[1] = Kinetic solubility; type: physicochemical; conditions: Universal Aqueous buffer pH 7.4
Experimental: Kinetic Solubility: 396 μL of Universal Aqueous buffer (pH 7.4) was added to 4 μL of a 50 mM DMSO stock solution of each compound. Wells were agitated for 4 hours at 20° C. and then filtered. The compound was then diluted to serial concentrations with DMSO, followed by serial dilutions with ACN:H2O (1:1) prior to liquid chromatography-mass spectroscopy (LCMS) analysis. The calculated concentration (μM) of soluble compound was determined in reference to a standard curve.

[2] = biological target: CYP3A4 (Homo sapiens, UniProt P08684); test: Human CYP inhibition in human liver microsomes; type: in vitro ADME
Sequence of CYP3A4 (P08684 whole entry): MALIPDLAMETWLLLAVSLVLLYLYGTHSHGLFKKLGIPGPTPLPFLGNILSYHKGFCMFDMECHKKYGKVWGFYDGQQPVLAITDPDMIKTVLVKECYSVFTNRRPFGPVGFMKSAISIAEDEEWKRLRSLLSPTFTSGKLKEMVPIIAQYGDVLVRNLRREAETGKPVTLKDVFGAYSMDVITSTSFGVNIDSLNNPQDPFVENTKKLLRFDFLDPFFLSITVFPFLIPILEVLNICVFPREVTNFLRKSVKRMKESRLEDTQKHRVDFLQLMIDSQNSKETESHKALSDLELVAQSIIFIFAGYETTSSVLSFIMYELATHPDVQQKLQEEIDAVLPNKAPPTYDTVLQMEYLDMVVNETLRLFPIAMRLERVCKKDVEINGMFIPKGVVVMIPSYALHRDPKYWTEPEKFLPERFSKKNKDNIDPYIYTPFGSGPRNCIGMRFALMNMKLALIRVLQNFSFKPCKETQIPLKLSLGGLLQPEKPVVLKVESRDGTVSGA
Experimental: Study samples (containing either control inhibitor or test compound) were added into the tubes, vortexed gently and pre-incubated for 5 min at 37° C. 20 μL of NADPH solution was aliquoted into all tubes, then vortexed to start the reaction and to assure adequate mixture of the NADPH. After mixing, the tubes were incubated for 20 min at 37° C. in a shaking water bath and then quenched in […] formic acid/acetonitrile solution. After quenching, the samples were vortexed vigorously for 1 min and centrifuged at 4,000 rpm for 15 min (4° C.). 100 μL of supernatant was transferred to 0.65 ml tubes for LCMS analysis by the bioanalytical method described earlier. The CYP450 substrates and control inhibitors for each enzyme was as follows: CYP1A2 (phenacetin, naphthoflavone), CYP2C9 (diclofenac, sulfaphenazole), CYP2C19 (omeprazole, tranylcypromine), CYP2D6 (dextromethorphan, quinidine), CYP3A4 (midazolam, ketoconazole).

[3] = system: Caco-2 cells; test: Caco-2 permeability; type: in vitro ADME; conditions: 10 μM
Experimental: (§1) Caco-2 Permeability: Caco-2 cells (ATCC®, Manassas, Virginia, United States of America) were grown on 24-well (pore size: 0.4 μm) polycarbonate filters. The monolayers were pre-incubated with pre-warmed HBSS (Hank's balanced salt solution) containing 2.5% HEPES buffer (pH 7.4) for 0.5 h at 37° C. After pre-incubation, the buffer was removed, and the experimental compounds were added to reach a final concentration of 10 μM. 2% bovine serum albumin (BSA) was added to the receiver buffer for the study. The total volume was 400 μL for the apical (A) side and 1200 μL for the basolateral (B) side. For apical to basolateral transport study (A-B), 100 μL each was collected from both sides for sample analysis at the start of the assay and then 200 μL was collected from the […] at 90 minutes (end of the study). The same timepoints and amounts were used for the basolateral to apical transport study (B-A).
(§2) The apparent permeability coefficient (Papp) was calculated from the following equation.
(§3) • v=Volume of the receiver cell • A=Exposed surface area (0.64 cm^2) • C=Initial donor concentration • ∂C/∂t=Change in receiver concentration over time

[4] = Toxicity assay in TZM-bl cells; type: cell-based; conditions: human
Method in brief: (§4)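 TZM-bl cells (2×10^5/mL, with DEAE-dextran) were exposed to serially diluted compound plus virus at a constant 0.005% or 0.05% DMSO for 48 h at 37 °C. CellTiter-Blue was added at 46 h and incubated 2 h. Viability was read as fluorescence at 560/590 nm after stopping with 1.5% SDS.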

[5] = system: TZM-bl cells; test: Toxicity assay in TZM-bl cells; type: cell-based
Method in brief: as §4

[6] = biological target: T1, HIV I reverse transcriptase (Human immunodeficiency virus type 1 group M subtype B, UniProt P03366); test: Reverse transcriptase inhibition assay (Roche kit, ELISA); type: biochemical
T1 construct: purchased Roche
Experimental: NNRTI assay methods: Inhibition of HIV I reverse transcriptase was assessed via a kit from Roche (Indianapolis-Marion County, Indiana, United States of America) using the manufacture's protocol (500 μM final reverse transcriptase reaction amount). […] DMSO concentrations were kept the same for all dilutions used within an assay (0.05%). Final compound concentrations ranged from 5000 nM-0.05 nM with 2-fold serial dilutions. 96-well plates were set up with 20 μL compound dilution, 20 μL reverse transcriptase, and 20 μL template/nucleotides and incubated at 37° C. 5% CO2 for 1 hr in a reaction plate. 50 μL of each reaction was then transferred to a streptavidin conjugated 96-well plate and an ELISA assay was run based on manufacture's protocol. All compounds were tested in sextuplicate, with single wells of efavirenz dilutions on each plate.

[7] = Caco-2 permeability; type: in vitro ADME; conditions: human, Caco-2, pH 7.4
Experimental: as §1, §2, §3

SMILES | solubility at 4 h [1] [µM] | IC50 [2] [µM] | Caco-2 Papp A-B ([3]; 90 minutes) [cm/s] | Caco-2 Papp B-A ([3]; 90 minutes) [cm/s] | Caco-2 Efflux ratio ([3]; human, Caco-2, 90 min, pH 7.4) | CC50 at 48 h [4] [µM] | Qualitative Cell Toxicity within inhibition range [5] | EC50 [6] [µM] | solubility at 4 h ([1]; 20 °C, kinetic from dmso stock) [µM] | IC50 ([2]; human liver microsomes, substrate midazolam, read-out: CYP inhibition IC50, 3A4) [µM] | efflux ratio at 90 min, 10 μM [7] | Papp A→B at 90 min, 10 μM ([7]; 10 μM, 90 minutes) [×10⁻⁶ cm/s] | Papp B→A at 90 min, 10 μM ([7]; 10 μM, 90 minutes) [×10⁻⁶ cm/s] | CC50 at 48 h ([4]; Table 4, TZM-bl, read-out: CC50 (TZM)) [µM] | CC50 at 48 h ([4]; text b494, FIG. 2F, read-out: cytotoxicity CC50) [µM] | Qualitative Cell Toxicity within inhibition range ([5]; Table 3, TZM-bl) | Quantitative Cell Toxicity ([5]; Table 3, TZM-bl) [µM] | IC50 [6] [nM] | disparity between the IC50s for in-cell (TZM-bl) and reverse transcriptase HIV I inhibition [6] [fold]
Nc1nc(Nc2ccc(Cl)cc2)nn1S(=O)(=O)c1ccc2ccccc2c1 [Compound 1, N3-(4-chlorophenyl)-1-(2-naphthylsulfonyl)-1,2,4-triazole-3,5-diamine] | <0.2 | > 50 | 1.38e-07 | 1.22e-07 | (×10−6 cm/s) Efflux ratio = 0.883 | > 1 | None | 4.84 | – | – | – | – | – | – | – | – | – | – | –
N#C/C=C/c1ccc2c(S(=O)(=O)n3nc(Nc4ccc(C#N)c(Cl)c4)nc3N)cccc2c1 [Compound 20, 4-[[5-amino-1-[[6-[2-cyanovinyl]-1-naphthyl]sulfonyl]-1,2,4-triazol-3-yl]amino]-2-chloro-benzonitrile] | – | – | – | – | – | – | – | 4.06 | < 0.2 | 31.3 | 1 | 0.4 | 0.4 | 4.95 | 5.35 | None | 4.06 | 1350 | 1000
